Read-outs that look alike come from different tables or passages of the source.
Key:
[1] = tested on: T. brucei bloodstream form; experiment: Initial screen, T. brucei bloodstream form, Alamar Blue; type: cell-based, Trypanosoma brucei brucei; conditions: for initial hit against T. brucei: growth reduced by ≥50%; for inhibition of growth at 2 µM / activity at 2 µM: Trypanosoma brucei; for inhibition of growth at 2 µM: read-out: initial hit T.b
Outline: (§1)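 Bloodstream-form T. evansi Antat 3/3 and T. brucei Lister 427 were grown in HMI-11 with 10% FBS at 37 °C. Parasites were plated at 1×10^5 cells/mL with compound at 1 μM (T. evansi) or 2 μM (T. brucei) for 48 h, and growth was read by Alamar Blue relative to 1% DMSO controls (n = 6).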

[2] = Cytotoxicity CC50, HepG2, Alamar Blue; conditions: human
Text: (§2) Initial hits from the parasite panel screen were taken forward in log concentration versus normalised response assays to estimate the half maximal effective concentration (EC50) in hit species as well as the half maximal cytotoxic concentrations (CC50) in the human hepatoma cell line HepG2 as a preliminary test for selectivity. Using CC50/EC50 to define the selectivity index (SI), the selectivity for each compound in a defined species compared to a human cell line was estimated and compared to the EC50 (Figure 3).
(§3) L. mexicana strain MNYC/BZ/62/M379 and L. donovani strain LdBOB (a clonal line from strain MHOM/SD/62/1S-CL2) were maintained in vitro in the procyclic promastigote stage. Parasites were cultivated at 26 °C in Schneider’s medium (Gibco) pH 7.0 containing 10% FBS, 100 U/mL penicillin (Lonza) and 100 μg/mL streptomycin (Lonza) as previously described. Differentiation into axenic amastigotes was performed as described previously. Briefly, axenic amastigotes were cultivated at 32 °C in Schneider’s medium pH 5.5 containing 10% FBS, 100 U/mL penicillin (Lonza) and 100 μg/mL streptomycin (Lonza). Bloodstream form T. brucei brucei strain Lister 427 and T. evansi strain Antat 3/3 [59] were maintained in vitro at 37 °C with 5% (v/v) CO2 in HMI-11 medium supplemented with 10% FBS, as described elsewhere. Intraerythrocytic cultures of P. falciparum Dd2^Luc strain [62] were maintained at 37 °C in a 1% O2:3% CO2:96% N2 atmosphere in RPMI-1640 containing 37.5 mM HEPES, 5 mM NaOH, 10 mM D-glucose, 2 mM L-glutamine, 100 μM hypoxanthine, […] gentamicin sulfate, 5% human serum and 5% albumax-II and 2% haematocrit erythrocytes. When required, cultures were synchronised to ring stages using the sorbitol lysis method. Preliminary cytotoxicity screening was assessed using HepG2 cells. These cells were maintained in vitro at 37 °C with 5% (v/v) CO2 in DMEM (Sigma) pH 7 supplemented with 10% FBS, 100 U/mL penicillin (Lonza) and 100 μg/mL streptomycin (Lonza), as previously described. The human monocyte cell line THP-1 [68] was maintained in vitro by culturing at 37 °C with 5% (v/v) CO2 in complete RPMI medium (Dutch modified RPMI-1640 (Gibco) containing 10% FBS and 2 mM L-glutamine (Gibco)). Differentiation of THP-1 cells into macrophages was performed by seeding 2.5 × 10^5 cells/mL in complete RPMI media, supplemented with 20 ng/mL phorbol 12-myristate 13-acetate (PMA), followed by incubation at 37 °C with 5% (v/v) CO2 for 24 h.
(§4) EC50 values were determined by serial two-fold dilution of each compound in 96 well plates. Culture conditions and viability assays were as stated for the initial screen, with some exceptions. L. mexicana and L. donovani axenic amastigotes were seeded at 2 × 10^6 cell/s mL, T. brucei and T. evansi were seeded at 2 × 10^5 cells/mL. For cytotoxicity studies, HepG2 cells were seeded at 1 × 10^5 cells/mL, incubated for 48 h and viability was assessed using the Alamar Blue assay. Differentiated THP-1 cells were seeded at 5 × 10^4 cells/mL, incubated for 48 h, and viability was assessed by the Alamar Blue assay. Normalised growth and viability data (compared to untreated controls) were plotted against Log10 concentration to estimate EC50 in GraphPad (Prism v6). Bioluminescence relative rate of kill assays in asexual intraerythrocytic P. falciparum Dd2^Luc were carried out as described.

[3] = tested on: HepG2 cells; experiment: Cytotoxicity CC50, HepG2, Alamar Blue; conditions: 48 h
Text: as §2, §3, §4

[4] = tested on: T. evansi bloodstream form; experiment: Initial screen, T. evansi bloodstream form, Alamar Blue; type: cell-based, Trypanosoma evansi; conditions: Trypanosoma evansi; for activity at 1 µM: initial screen
Outline: as §1

[5] = tested on: T. brucei; experiment: Concentration-response EC50, T. brucei; type: cell-based, Trypanosoma brucei brucei; conditions: for EC50: 48 h; for selectivity index (HepG2 CC50 / T. brucei EC50): preliminary selectivity against HepG2
[6] = tested on: P. falciparum Dd2Luc intraerythrocytic trophozoites; experiment: Initial screen, intraerythrocytic P. falciparum, Malaria SYBR-Green I fluorescence assay; type: cell-based, Plasmodium falciparum; conditions: for activity at 2 µM / inhibition of growth at 2 µM: Plasmodium falciparum, 48 h; for initial hit against P. falciparum: 2 μM, growth reduced by ≥50%; for inhibition of growth at 2 µM: read-out: initial hit P.f
Outline: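 L. mexicana axenic amastigotes at 1 × 10^6 cells/mL exposed 72 h to compounds at 2 μM, growth read by Alamar Blue; P. falciparum trophozoites at 0.5% parasitaemia, 2% haematocrit, 48 h at 2 μM, SYBR-Green I read-out. Growth normalised to 1% DMSO; hits ≥50% growth reduction.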

[7] = tested on: T. evansi; experiment: Concentration-response EC50, T. evansi; type: cell-based; conditions: Trypanosoma evansi, 48 h, read-out: T. evansi EC50
[8] = tested on: L. mexicana axenic amastigotes; experiment: Initial screen, L. mexicana axenic amastigotes, Alamar Blue; type: cell-based, Leishmania mexicana; conditions: Leishmania mexicana
Outline: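 Purified temperate plant natural products from a commercial library (1 mg/mL in DMSO) were tested against Leishmania mexicana axenic amastigotes at a final 2 μM. Parasites were seeded at 1 × 10^6 cells/mL in 96-well plates containing 200 μL culture and incubated 72 h. Growth was measured by Alamar Blue and normalised to DMSO controls (1% v/v), with triplicates over two biological replicates (n = 6).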

[9] = tested on: P. falciparum 3D7; experiment: Concentration-response EC50, P. falciparum 3D7; type: cell-based; conditions: Plasmodium falciparum
Text: This is not surprising as the rate of kill is a result of the mechanism of cell death and, given their structural similarity, these three bisobolane sesquiterpene glycosides likely share the same target(s), albeit with some differences in affinity. The rate of kill, relatively, falls between that of atovaquone and dihydroartemisinin and is more similar to that of chloroquine.

[10] = tested on: P. falciparum Dd2Luc; experiment: Concentration-response EC50, P. falciparum Dd2Luc; type: cell-based, Plasmodium falciparum; conditions: Plasmodium falciparum, 48 h, read-out: P. falciparum Dd2Luc EC50, intraerythrocytic, 48 h
Method: EC50 values were determined by serial two-fold dilution of each compound in 96 well plates. Culture conditions and viability assays were as stated for the initial screen, with some exceptions. L. mexicana and L. donovani axenic amastigotes were seeded at 2 × 10^6 cell/s mL, T. brucei and T. evansi were seeded at 2 × 10^5 cells/mL. For cytotoxicity studies, HepG2 cells were seeded at 1 × 10^5 cells/mL, incubated for 48 h and viability was assessed using the Alamar Blue assay [66, 67]. […] Normalised growth and viability data (compared to untreated controls) were plotted against Log10 concentration to estimate EC50 in GraphPad (Prism v6).

[11] = Trypanosoma brucei, bloodstream form, read-out: T. brucei EC50
[12] = read-out: %growth P. falciparum, mean % growth compared to a normalised control with same concentration of DMSO solvent, initial screen
[13] = read-out: % growth L. mexicana, mean % growth compared to a normalised control with same concentration of DMSO solvent, initial screen
[14] = read-out: % growth T. b. brucei, mean % growth compared to a normalised control with same concentration of DMSO solvent, initial screen
[15] = 3D7, read-out: P. falciparum 3D7 EC50
[16] = Trypanosoma brucei, read-out: T. brucei EC50, bloodstream form, 48 h
[17] = mean % growth compared to a normalised control with same concentration of DMSO solvent, initial screen
[18] = read-out: mean % growth, L. mexicana, initial screen, compared to a normalised control with same concentration of DMSO solvent
[19] = initial screen, compared to a normalised control with same concentration of DMSO solvent, read-out: mean % growth, T. b. brucei
[20] = 3D7, intraerythrocytic, read-out: P. falciparum 3D7 EC50
[21] = compared to a normalised control with same concentration of DMSO solvent, read-out: mean % growth, T. evansi
[22] = read-out: mean % growth, P. falciparum, initial screen, compared to a normalised control with same concentration of DMSO solvent

In the case of `CC(=O)OC1C(C)OC(OC2C(OC(=O)C3CC[C@@H]4[C@H](C3)OC3(CC(OC(=O)/C=C/c5ccccc5)[C@@H](C)CO3)C4(O)CO)OC(C)C(O)C2OC(C)=O)C(O)C1O` (stereo partly drawn) [Compound 700035], the “initial hit against T. brucei” value ([1]; 2 μM) is reported as “initial hits”, the inhibition of growth at 2 µM ([1]; 2 μM, x = initial hit) is reported as greater than 50% and the CC50 at 48 h ([2]; pH 7, HepG2 CC50, 48 h) is reported as 15200 nM. It also gave a CC50 ([3]; read-out: HepG2 CC50) of 15000 nM, an activity at 1 µM ([4]; mean % growth compared to a normalised control with same concentration of DMSO solvent, read-out: % growth T. evansi) of 105% and an EC50 [5, 11] of 350 nM. The EC50 ([5]; bloodstream form, read-out: T. brucei EC50) was 360 nM and the activity at 2 µM [6, 12] was 90.1%.
For `CC(=O)OC1C(O)C(C)OC(OC2C(OC(=O)C3CC[C@@H]4[C@H](C3)OC3(CC(OC(=O)/C=C/c5ccccc5)[C@@H](C)CO3)C43CO3)OC(CO)C(O)C2O)C1O` (stereo partly drawn) [Compound 700046], the EC50 [7] was 118 nM, the activity at 2 µM [8, 13] was 83.4% and the “initial hit against T. brucei” value ([1]; 2 μM) was “initial hits”. The activity at 2 µM [1, 14] was 5.6%, the inhibition of growth at 2 µM [1] was greater than 50% and the EC50 [9, 15] was 34 nM. It also gave an activity at 1 µM ([4]; read-out: % growth T. evansi, mean % growth compared to a normalised control with same concentration of DMSO solvent) of 2.9%, an inhibition of growth at 1 µM ([4]; read-out: initial hit T.e) greater than 50% and an EC50 [10] of 56 nM. The EC50 [5, 16] was 180 nM, the “selectivity index (HepG2 CC50 / T. brucei EC50)” value [5] was greater than 10 and the “initial hit against P. falciparum” value [6] was “initial hits”. It also gave an activity at 2 µM [6, 12] of 9.8% and an inhibition of growth at 2 µM [6] greater than 50%.
With `CC(=O)OC1C(O)C(C)OC(OC2C(OC(=O)C3CC[C@@H]4[C@H](C3)OC3(CC(OC(=O)/C=C/c5ccccc5)[C@@H](C)CO3)C43CO3)OC(CO)C(O)C2OC(C)=O)C1O` (stereo partly drawn) [Compound 700048] the activity at 2 µM [8, 13] was 89%, the “initial hit against T. brucei” value ([1]; 2 μM) was “initial hits” and the inhibition of growth at 2 µM [1] was greater than 50%. The “% growth T. b. brucei” value [1, 17] was 5.8%, the EC50 [9, 15] was 360 nM and the EC50 [10] was 150 nM. For the same compound, the EC50 [5, 16] was 160 nM, the “selectivity index (HepG2 CC50 / T. brucei EC50)” value [5] was greater than 10 and the “initial hit against P. falciparum” value [6] was “initial hits”. For the same compound, the inhibition of growth at 2 µM [6] was greater than 50% and the “%growth P. falciparum” value [6, 17] was 20.3%.
Work on `COc1cc(/C=C/C(=O)OC2CC3(C[C@H]4C=C(C(=O)OC5OC(CO)C(O)C(OC(C)=O)C5OC5OC(C)C(O)C(OC(C)=O)C5O)CC[C@H]4C34CO4)OC[C@@H]2C)ccc1O` (stereo partly drawn) [Compound 700104] yielded an activity at 2 µM [8, 13] of 146%, an activity at 2 µM [1, 14] of 69.7% and an EC50 [9, 15] of 350 nM. The EC50 [10] was 750 nM, the “initial hit against P. falciparum” value [6] was “initial hits” and the activity at 2 µM [6, 12] was 31.6%. It also gave an inhibition of growth at 2 µM [6] greater than 50%.
Compound `C=C1C(OC(=O)/C=C/c2ccccc2)C(CC(C)=O)C(O)C2(C)CCC3=C(C)C(OC(C)=O)CC(CC12)C3(C)C` (stereo not drawn) [Compound 700535] has an activity at 2 µM [8, 18] of 68.2%, an activity at 2 µM [1, 19] of 99.4% and an EC50 [9, 20] of 3300 nM. The activity at 1 µM [4, 21] was 78.7%, the EC50 [10] was 2300 nM and the “initial hit against P. falciparum” value [6] was “initial hits”. For the same compound, the inhibition of growth at 2 µM [6] was greater than 50% and the activity at 2 µM [6, 22] was 31%.
With `CC1(C)OC2CC(=O)C=CC2(c2cc(=O)c3c(O)cc(O)cc3o2)O1` (stereo not drawn) [Compound 700585] the activity at 2 µM [8, 18] was 78%, the “initial hit against T. brucei” value ([1]; 2 μM) was “initial hits” and the activity at 2 µM [1, 19] was 40.8%. The inhibition of growth at 2 µM ([1]; 2 μM, x = initial hit) was greater than 50%, the CC50 at 48 h ([2]; pH 7, HepG2 CC50) was less than 10000 nM and the CC50 ([3]; human, pH 7) was 5300 nM. The EC50 [5, 11] was 430 nM, the “selectivity index (HepG2 CC50 / T. brucei EC50)” value [5] was greater than 10 and the activity at 2 µM [6, 22] was 95.2%.
With `CC(=O)OC1C(COC(=O)/C=C/c2ccc(O)cc2)OC(Oc2c(-c3ccc(O)cc3)oc3cc(O)cc(O)c3c2=O)C(OC(=O)/C=C/c2ccc(O)cc2)C1OC(C)=O` (stereo not drawn) [Compound 701082] the activity at 2 µM [8, 18] was 67.8%, the “initial hit against T. brucei” value ([1]; 2 μM) was “initial hits” and the activity at 2 µM [1, 19] was 5%. The inhibition of growth at 2 µM ([1]; 2 μM, x = initial hit) was greater than 50%, the CC50 at 48 h ([2]; pH 7, HepG2 CC50) was 4600 nM and the EC50 [9, 20] was 1600 nM. It also gave an EC50 [10] of 1200 nM, an EC50 [5, 11] of 1100 nM and an activity at 2 µM [6, 22] of 77%.
For `COC(=O)C1=COC(O)C2C1CC(OC(=O)/C=C/c1ccc(O)cc1)C2C` (stereo not drawn) [Compound 701145], the activity at 2 µM [8, 18] was 48.9%, the “initial hit against T. brucei” value ([1]; 2 μM) was “initial hits” and the activity at 2 µM [1, 19] was 3.4%. It also gave an inhibition of growth at 2 µM ([1]; 2 μM, x = initial hit) greater than 50%, a CC50 at 48 h ([2]; pH 7, HepG2 CC50) of 27800 nM and a CC50 ([3]; human, pH 7) of 28000 nM. The activity at 1 µM [4, 21] was 118%, the EC50 [5, 11] was 520 nM and the activity at 2 µM [6, 22] was 96%.

Reference: article PMC7998250, “Temperate Zone Plant Natural Products—A Novel Resource for Activity against Tropical Parasitic Diseases” (Pharmaceuticals, 2021)
